Results reported in patent US9050286B2, “Use of peptidic vasopression receptor agonists” (Ferring B.V., priority 2007, dated 2015).
Bridge positions count the residues as written; N and C are the ends. Square brackets hold non-standard residues; d marks the D form. Peptide text beside a SMILES is read from it. Ala(cPent) = N[C@@H](CC1CCCC1)C(=O)O; Orn(iPr) = CC(C)NCCC[C@H](N)C(=O)O; Cha = N[C@@H](CC1CCCCC1)C(=O)O; Orn = NCCC[C@H](N)C(=O)O; Dab = NCC[C@H](N)C(=O)O; Ac4c = NC1(C(=O)O)CCC1

Biological target: T1, hV1a receptor (Homo sapiens, UniProt P37288)
T1 construct: expressed in transfected cells; host or cells: HEK-293
T1 sequence (P37288 whole entry): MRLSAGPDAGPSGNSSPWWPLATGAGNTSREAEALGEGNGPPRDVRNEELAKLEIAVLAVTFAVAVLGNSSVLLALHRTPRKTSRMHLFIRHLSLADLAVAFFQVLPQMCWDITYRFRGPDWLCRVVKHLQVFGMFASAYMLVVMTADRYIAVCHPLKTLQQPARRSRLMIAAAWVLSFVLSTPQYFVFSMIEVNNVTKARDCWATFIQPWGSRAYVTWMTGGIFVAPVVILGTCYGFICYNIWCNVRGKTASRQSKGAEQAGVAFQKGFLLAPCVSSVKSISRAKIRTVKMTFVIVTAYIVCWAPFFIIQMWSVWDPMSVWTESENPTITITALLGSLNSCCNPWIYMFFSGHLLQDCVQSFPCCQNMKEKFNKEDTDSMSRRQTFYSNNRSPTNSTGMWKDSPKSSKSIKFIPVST
Assay: hV1a receptor agonist transcriptional reporter (luciferase) assay in transiently transfected HEK-293 cells
Format: cell-based
Details: agonist activity; HEK-293 cells transiently transfected with hV1a receptor and calcium-responsive luciferase reporter; 5 hours exposure; geometric mean of at least three independent experiments; read-out: EC50 (median effective concentration)
Description: Agonist activity of compounds on the hV1a receptor was determined in a transcriptional reporter assay by transiently transfecting a hV1a receptor expression DNA into HEK-293 cells in concert with a reporter DNA containing intracellular calcium responsive promoter elements regulating expression of firefly luciferase. See Boss, V., Talpade, D. J., Murphy, T. J. J. Biol. Chem. 1996, May 3; 271(18), 10429-10432 for further guidance on this assay. […] Arginine-vasopressin (AVP) was used as an internal control in each experiment, and compounds were tested in at least three independent experiments.
The results of the in vitro assays are depicted in table 1 supra. The EC50 value given is the geometric mean expressed in nanomol/L (nM). Selectivity values are given as EC50 ratios.

EC50 [nM] | Structure (SMILES)
7.7 | CC[C@H](C)[C@@H]1NC(=O)[C@H](CC2CCCC2)NC(=O)[C@@H](N)CSSC[C@@H](C(=O)N2CCC[C@H]2C(=O)N[C@@H](CCCN)C(=O)NCC(N)=O)NC(=O)[C@H](CC(N)=O)NC(=O)[C@H](CC(N)=O)NC1=O [Compound 7] (H-C[Ala(cPent)]INNCP[Orn]G-NH2; disulfide 1-6)
0.75 | CC[C@H](C)[C@@H]1NC(=O)[C@H](CC2CCCCC2)NC(=O)[C@@H](N)CSSC[C@@H](C(=O)N2CCC[C@H]2C(=O)N[C@@H](CCCN)C(=O)NCC(N)=O)NC(=O)[C@H](CC(N)=O)NC(=O)[C@H](CC(N)=O)NC1=O [Compound 8] (H-C[Cha]INNCP[Orn]G-NH2; disulfide 1-6)
2.28 | CC[C@H](C)[C@@H]1NC(=O)[C@H](CC2CCCCC2)NC(=O)[C@@H](N)CSSC[C@@H](C(=O)N2CCC[C@H]2C(=O)N[C@@H](CCN)C(=O)NCC(N)=O)NC(=O)[C@H](CC(N)=O)NC(=O)[C@H](CC(N)=O)NC1=O [Compound 12] (H-C[Cha]INNCP[Dab]G-NH2; disulfide 1-6; N-terminus assumed)

The next lines start with the compound.

Structure (SMILES) | EC50 [nM]
CC[C@H](C)[C@@H]1NC(=O)[C@H](CC2CCCCC2)NC(=O)[C@@H](N)CSSC[C@@H](C(=O)N2CCC[C@H]2C(=O)N[C@@H](CCCNC(C)C)C(=O)NCC(N)=O)NC(=O)[C@H](CC(N)=O)NC(=O)[C@H](CC(N)=O)NC1=O [Compound 4, [Cha^2, Asn^4, Orn (i-Pr)^8]VT] (H-C[Cha]INNCP[Orn(iPr)]G-NH2; disulfide 1-6) | 10.7
CC[C@H](C)[C@@H]1NC(=O)C2(CCC2)NC(=O)[C@@H](N)CSSC[C@@H](C(=O)N2CCC[C@H]2C(=O)N[C@@H](CCCN)C(=O)NCC(N)=O)NC(=O)[C@H](CC(N)=O)NC(=O)[C@H](CC(N)=O)NC1=O [Compound 6] (H-C[Ac4c]INNCP[Orn]G-NH2; disulfide 1-6) | 7.93
CC[C@H](C)[C@@H]1NC(=O)C2(CCC2)NC(=O)[C@@H](N)CSSC[C@@H](C(=O)N2CCC[C@H]2C(=O)N[C@@H](CCN)C(=O)NCC(N)=O)NC(=O)[C@H](CC(N)=O)NC(=O)[C@H](CC(N)=O)NC1=O [Compound 9] (H-C[Ac4c]INNCP[Dab]G-NH2; disulfide 1-6; N-terminus assumed) | 14.8
